Assay results published in patent publication US20100298141A1, “SUBSTITUTED PYRIDINE N-OXIDE HERBICIDES” (E. I. DU PONT DE NEMOURS AND COMPANY, priority 2007, published 2010).

What was measured:
barnyardgrass [1] = assay: Test A pre-/postemergence greenhouse test; format: in vivo, Echinochloa crus-galli; settings: for Barnyardgrass plant response rating: 0 to 100 scale; for Plant response rating, Barnyardgrass: 0 to 100 scale where 0 is no effect and 100 is complete control
How it was run: (§1)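 Greenhouse herbicide screen, pre- and postemergence in parallel. Soil: loam plus sand. Formulation: non-phytotoxic solvent mix with surfactant. Postemergence stage: one to two leaves, 2–10 cm height. Evaluation: visual injury, compared with untreated controls, about 10 days after treatment.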

crabgrass = assay: Test A pre-/postemergence greenhouse test; format: in vivo, Digitaria sanguinalis; settings: for Crabgrass, Large plant response rating: 0 to 100 scale; for Plant response rating, Crabgrass, Large: 0 to 100 scale where 0 is no effect and 100 is complete control
How it was run: as §1

giant foxtail = assay: Test A pre-/postemergence greenhouse test; format: in vivo, Setaria faberi; settings: for Foxtail, Giant plant response rating: 0 to 100 scale; for Plant response rating, Foxtail, Giant: 0 to 100 scale where 0 is no effect and 100 is complete control
How it was run: as §1

morningglory = assay: Test A pre-/postemergence greenhouse test; format: in vivo, Ipomoea spp.; settings: for Morningglory plant response rating: 0 to 100 scale; for Plant response rating, Morningglory: 0 to 100 scale where 0 is no effect and 100 is complete control
How it was run: as §1

redroot pigweed = assay: Test A pre-/postemergence greenhouse test; format: in vivo, Amaranthus retroflexus; settings: for Pigweed plant response rating: 0 to 100 scale; for Plant response rating, Pigweed: 0 to 100 scale where 0 is no effect and 100 is complete control
How it was run: as §1

velvetleaf = assay: Test A pre-/postemergence greenhouse test; format: in vivo, Abutilon theophrasti; settings: for Velvetleaf plant response rating: 0 to 100 scale; for Plant response rating, Velvetleaf: 0 to 100 scale where 0 is no effect and 100 is complete control
How it was run: as §1

wheat = assay: Test A pre-/postemergence greenhouse test; format: in vivo, Triticum aestivum; settings: for Wheat plant response rating: 0 to 100 scale; for Plant response rating, Wheat: 0 to 100 scale where 0 is no effect and 100 is complete control
How it was run: as §1

corn = assay: Test A pre-/postemergence greenhouse test; format: in vivo, Zea mays; settings: for Corn plant response rating: 0 to 100 scale; for Plant response rating, Corn: 0 to 100 scale where 0 is no effect and 100 is complete control
How it was run: as §1

rice = assay: Test C flooded paddy test; format: in vivo, Oryza sativa; settings: Flood
How it was run: (§2)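 Flooded 3 cm over soil; compound into paddy water; depth kept constant. Greenhouse 13–15 d.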

umbrella sedge = assay: Test C flooded paddy test; format: in vivo, Cyperus difformis; settings: Flood
How it was run: as §2

duck salad = assay: Test C flooded paddy test; format: in vivo, Heteranthera limosa; settings: Flood
How it was run: as §2

barnyardgrass [2] = assay: Test C flooded paddy test; format: in vivo, Echinochloa crus-galli; settings: Flood
How it was run: as §2

[3] = Postemergence, 125 g ai/ha, 0 is no effect, 100 is complete control
[4] = Postemergence, 500 g ai/ha, 0 is no effect, 100 is complete control
[5] = Preemergence, 125 g ai/ha, 0 no effect, 100 complete control
[6] = 31 g ai/ha, scale 0 to 100 (0 no effect, 100 complete control)
[7] = 62 g ai/ha, scale 0 to 100, 0 no effect, 100 complete control, 13 to 15 days
[8] = 125 g ai/ha, scale 0 to 100, 0 no effect, 100 complete control, 13 to 15 days
[9] = 250 g ai/ha, scale 0 to 100 (0 no effect, 100 complete control)
[10] = 250 g ai/ha, scale 0 to 100, 0 no effect, 100 complete control, 13 to 15 days

## Cc1cc[n+]([O-])c([S+]([O-])C(C)c2c(C(F)(F)F)nn(C)c2Cl)c1 (mixture of isomers) [Compound 15]
Barnyardgrass [1]; [3]
  Barnyardgrass plant response rating: 0
Barnyardgrass [1]; [4]
  Barnyardgrass plant response rating: 0
Barnyardgrass [1]; [5]
  Barnyardgrass plant response rating: 0
Barnyardgrass [1]; Preemergence, 500 g ai/ha
  Plant response rating, Barnyardgrass: 0
crabgrass; [3]
  Crabgrass, Large plant response rating: 0
crabgrass; [4]
  Crabgrass, Large plant response rating: 0
crabgrass; [5]
  Crabgrass, Large plant response rating: 0
crabgrass; Preemergence, 500 g ai/ha
  Plant response rating, Crabgrass, Large: 20
Giant foxtail; [3]
  Foxtail, Giant plant response rating: 0
Giant foxtail; [4]
  Foxtail, Giant plant response rating: 0
Giant foxtail; [5]
  Foxtail, Giant plant response rating: 0
Giant foxtail; Preemergence, 500 g ai/ha
  Plant response rating, Foxtail, Giant: 0
morningglory; [3]
  Morningglory plant response rating: 0
morningglory; [4]
  Morningglory plant response rating: 0
morningglory; [5]
  Morningglory plant response rating: 0
morningglory; Preemergence, 500 g ai/ha
  Plant response rating, Morningglory: 0
Redroot pigweed; [3]
  Pigweed plant response rating: 0
Redroot pigweed; [4]
  Pigweed plant response rating: 0
Redroot pigweed; Preemergence, 500 g ai/ha
  Plant response rating, Pigweed: 0
velvetleaf; [3]
  Velvetleaf plant response rating: 0
velvetleaf; [4]
  Velvetleaf plant response rating: 0
velvetleaf; [5]
  Velvetleaf plant response rating: 0
velvetleaf; Preemergence, 500 g ai/ha
  Plant response rating, Velvetleaf: 0
wheat; [3]
  Wheat plant response rating: 0
wheat; [4]
  Wheat plant response rating: 0
wheat; [5]
  Wheat plant response rating: 0
wheat; Preemergence, 500 g ai/ha
  Plant response rating, Wheat: 0
corn; [3]
  Corn plant response rating: 0
corn; [4]
  Corn plant response rating: 0
corn; [5]
  Corn plant response rating: 0
corn; Preemergence, 500 g ai/ha
  Plant response rating, Corn: 0
rice; [6]
  Plant response rating, Rice: 0
rice; [7]
  Plant response rating, Rice: 0
rice; [8]
  Plant response rating, Rice: 0
rice; [9]
  Plant response rating, Rice: 0
Umbrella sedge; [6]
  Plant response rating, Sedge, Umbrella: 85
Umbrella sedge; [7]
  Plant response rating, Sedge, Umbrella: 85
Umbrella sedge; [8]
  Plant response rating, Sedge, Umbrella: 85
Duck salad; [6]
  Plant response rating, Ducksalad: 20
Duck salad; [7]
  Plant response rating, Ducksalad: 80
Duck salad; [8]
  Plant response rating, Ducksalad: 80
Barnyardgrass [2]; [6]
  Plant response rating, Barnyardgrass: 20
Barnyardgrass [2]; [7]
  Plant response rating, Barnyardgrass: 20
Barnyardgrass [2]; [8]
  Plant response rating, Barnyardgrass: 20
Barnyardgrass [2]; [9]
  Plant response rating, Barnyardgrass: 20

## CC(c1c(C(F)(F)F)nn(CC(F)(F)F)c1Cl)S(=O)(=O)c1ccc(Cl)c[n+]1[O-] (centres unmarked) [Compound 55]
Barnyardgrass [1]; Postemergence, 125 g ai/ha
  Plant response rating, Barnyardgrass: 40
Barnyardgrass [1]; [4]
  Barnyardgrass plant response rating: 80
Barnyardgrass [1]; [5]
  Barnyardgrass plant response rating: 30
Barnyardgrass [1]; Preemergence, 500 g ai/ha
  Plant response rating, Barnyardgrass: 100
crabgrass; Postemergence, 125 g ai/ha
  Plant response rating, Crabgrass, Large: 50
crabgrass; [4]
  Crabgrass, Large plant response rating: 80
crabgrass; [5]
  Crabgrass, Large plant response rating: 80
crabgrass; Preemergence, 500 g ai/ha
  Plant response rating, Crabgrass, Large: 90
Giant foxtail; Postemergence, 125 g ai/ha
  Plant response rating, Foxtail, Giant: 70
Giant foxtail; [4]
  Foxtail, Giant plant response rating: 80
Giant foxtail; [5]
  Foxtail, Giant plant response rating: 60
Giant foxtail; Preemergence, 500 g ai/ha
  Plant response rating, Foxtail, Giant: 90
morningglory; Postemergence, 125 g ai/ha
  Plant response rating, Morningglory: 0
morningglory; [4]
  Morningglory plant response rating: 50
morningglory; [5]
  Morningglory plant response rating: 0
morningglory; Preemergence, 500 g ai/ha
  Plant response rating, Morningglory: 50
Redroot pigweed; Postemergence, 125 g ai/ha
  Plant response rating, Pigweed: 0
Redroot pigweed; [4]
  Pigweed plant response rating: 30
Redroot pigweed; [5]
  Pigweed plant response rating: 90
Redroot pigweed; Preemergence, 500 g ai/ha
  Plant response rating, Pigweed: 100
velvetleaf; Postemergence, 125 g ai/ha
  Plant response rating, Velvetleaf: 0
velvetleaf; [4]
  Velvetleaf plant response rating: 30
velvetleaf; [5]
  Velvetleaf plant response rating: 0
velvetleaf; Preemergence, 500 g ai/ha
  Plant response rating, Velvetleaf: 0
wheat; Postemergence, 125 g ai/ha
  Plant response rating, Wheat: 0
wheat; [4]
  Wheat plant response rating: 0
wheat; [5]
  Wheat plant response rating: 0
wheat; Preemergence, 500 g ai/ha
  Plant response rating, Wheat: 0
corn; Postemergence, 125 g ai/ha
  Plant response rating, Corn: 0
corn; [4]
  Corn plant response rating: 0
corn; [5]
  Corn plant response rating: 0
corn; Preemergence, 500 g ai/ha
  Plant response rating, Corn: 0
rice; [6]
  Plant response rating, Rice: 0
rice; [7]
  Plant response rating, Rice: 0
rice; [8]
  Plant response rating, Rice: 0
rice; [10]
  Plant response rating, Rice: 20
Umbrella sedge; [6]
  Plant response rating, Sedge, Umbrella: 0
Umbrella sedge; [8]
  Plant response rating, Sedge, Umbrella: 65
Umbrella sedge; [10]
  Plant response rating, Sedge, Umbrella: 75
Duck salad; [6]
  Plant response rating, Ducksalad: 0
Duck salad; [7]
  Plant response rating, Ducksalad: 40
Duck salad; [8]
  Plant response rating, Ducksalad: 60
Duck salad; [10]
  Plant response rating, Ducksalad: 60
Barnyardgrass [2]; [6]
  Plant response rating, Barnyardgrass: 0
Barnyardgrass [2]; [7]
  Plant response rating, Barnyardgrass: 0
Barnyardgrass [2]; [8]
  Plant response rating, Barnyardgrass: 0
Barnyardgrass [2]; [10]
  Plant response rating, Barnyardgrass: 0
